{"source": "PubChem BioAssay AID1745844", "about": "(Carcinogenic Potency Database (CPDB), 2022)", "test_system": "rodent lifetime carcinogenesis bioassay, tumor incidence TD50", "assay": "carcinogenic potency in animals, long-term in vivo studies, CPDB compilation (AID 1745844)", "key": {"[1]": {"settings": "mouse, strain ICI, males, by gavage, site: liver, lesion: several types, types named in the paper, dosed 80 weeks, study length 98 weeks"}, "[2]": {"settings": "mouse, strain ICI, males, by gavage, site: lung, lesion: several types, types named in the paper, dosed 80 weeks, study length 98 weeks"}}, "note": "Several values for one entry are separate records, joined by “and”; a condition that tells them apart may be missing. Identical values can stand only once. Activity calls are given as the source filed them. How the calls were made is not given here."}
{"smiles": "ClC(Cl)Cl", "values": [{"measurement": "TD50", "setting": "mouse, strain ICI, males, by gavage, site: any site (literature study), lesion: several types, types named in the paper, dosed 80 weeks, study length 96 weeks", "result": 45.4, "unit": "mg/kg/day"}, {"measurement": "TD50", "setting": "mouse, strain ICI, males, by gavage, site: any site (literature study), lesion: several types, types named in the paper, dosed 80 weeks, study length 98 weeks", "result": 88.5, "unit": "mg/kg/day"}, {"measurement": "TD50", "setting": "mouse, strain ICI, males, by gavage, site: kidney, lesion: several types, types named in the paper, dosed 80 weeks, study length 96 weeks", "result": 139, "unit": "mg/kg/day"}, {"measurement": "TD50", "setting": "mouse, strain ICI, males, by gavage, site: kidney, lesion: several types, types named in the paper, dosed 80 weeks, study length 98 weeks", "result": "278 mg/kg/day and 95.5 mg/kg/day"}, {"measurement": "TD50", "setting": "mouse, strain ICI, males, by gavage, site: liver, lesion: one or several types, types not named, dosed 80 weeks, study length 96 weeks", "result": "324 mg/kg/day (inactive)"}, {"measurement": "TD50", "setting": "[1]", "result": "437 mg/kg/day (inactive)"}, {"measurement": "carcinogen call", "setting": "[1]", "result": "negative (inactive)"}, {"measurement": "TD50", "setting": "mouse, strain ICI, males, by gavage, site: lung, lesion: one or several types, types not named, dosed 80 weeks, study length 96 weeks", "result": "9830 mg/kg/day (inactive)"}, {"measurement": "TD50", "setting": "[2]", "result": "336 mg/kg/day (inactive)"}, {"measurement": "carcinogen call", "setting": "[2]", "result": "negative (inactive)"}, {"measurement": "TD50", "setting": "rat, strain F344/DuCrj, females, inhaled, site: kidney, lesion: renal-cell adenoma, dosed 104 weeks, study length 104 weeks", "result": "1590 mg/kg/day (inactive)"}, {"measurement": "TD50", "setting": "rat, strain F344/DuCrj, females, inhaled, site: kidney, lesion: transitional-cell carcinoma, dosed 104 weeks, study length 104 weeks", "result": "1590 mg/kg/day (inactive)"}, {"measurement": "TD50", "setting": "rat, strain F344/DuCrj, females, inhaled, site: liver, lesion: hepatocellular adenoma, dosed 104 weeks, study length 104 weeks", "result": "2180 mg/kg/day (inactive)"}, {"measurement": "carcinogen call", "setting": "rat, strain F344/DuCrj, males, inhaled, site: kidney, lesion: one or several types, types not named, dosed 104 weeks, study length 104 weeks", "result": "negative (inactive)"}, {"measurement": "carcinogen call", "setting": "rat, strain F344/DuCrj, males, inhaled, site: liver, lesion: several types, types named in the paper, dosed 104 weeks, study length 104 weeks", "result": "negative (inactive)"}, {"measurement": "TD50", "setting": "rat, strain Osborne-Mendel, females, by gavage, site: any site (literature study), lesion: several types, types named in the paper, dosed 78 weeks, study length 110 weeks", "result": 68.2, "unit": "mg/kg/day"}, {"measurement": "TD50", "setting": "rat, strain Osborne-Mendel, females, by gavage, site: liver, lesion: hepatocellular adenoma + hepatocellular carcinoma + neoplastic nodule, dosed 78 weeks, study length 110 weeks", "result": 1130, "unit": "mg/kg/day"}, {"measurement": "TD50", "setting": "rat, strain Osborne-Mendel, females, by gavage, site: thyroid gland, lesion: c-cell adenoma + c-cell carcinoma + follicular-cell adenoma + follicular-cell carcinoma, dosed 78 weeks, study length 110 weeks", "result": "126 mg/kg/day (inactive)"}, {"measurement": "TD50", "setting": "rat, strain Osborne-Mendel, males, by gavage, site: any site (literature study), lesion: several types, types named in the paper, dosed 78 weeks, study length 110 weeks", "result": 194, "unit": "mg/kg/day"}, {"measurement": "TD50", "setting": "rat, strain Osborne-Mendel, males, by gavage, site: kidney, lesion: tubular-cell adenoma + tubular-cell adenocarcinoma, dosed 78 weeks, study length 110 weeks", "result": 119, "unit": "mg/kg/day"}, {"measurement": "TD50", "setting": "rat, strain Osborne-Mendel, males, by gavage, site: liver, lesion: hepatocellular adenoma + hepatocellular carcinoma + neoplastic nodule, dosed 78 weeks, study length 110 weeks", "result": 455, "unit": "mg/kg/day"}, {"measurement": "TD50", "setting": "rat, strain Osborne-Mendel, males, in drinking water, site: all sites, lesion: neurofibroma, dosed 104 weeks, study length 104 weeks", "result": 2200, "unit": "mg/kg/day"}, {"measurement": "TD50", "setting": "rat, strain Osborne-Mendel, males, in drinking water, site: all sites, lesion: several types, types named in the paper, dosed 104 weeks, study length 104 weeks", "result": 1360, "unit": "mg/kg/day"}, {"measurement": "TD50", "setting": "rat, strain Osborne-Mendel, males, in drinking water, site: any site (literature study), lesion: several types, types named in the paper, dosed 104 weeks, study length 104 weeks", "result": 1970, "unit": "mg/kg/day"}, {"measurement": "TD50", "setting": "rat, strain Osborne-Mendel, males, in drinking water, site: kidney, lesion: several types, types named in the paper, dosed 104 weeks, study length 104 weeks", "result": "519 mg/kg/day and 606 mg/kg/day"}, {"measurement": "TD50", "setting": "rat, strain Osborne-Mendel, males, in drinking water, site: kidney, lesion: tubular-cell adenoma, dosed 104 weeks, study length 104 weeks", "result": 972, "unit": "mg/kg/day"}, {"measurement": "TD50", "setting": "rat, strain Sprague-Dawley, females, by gavage, site: any site (literature study), lesion: malignant tumor, dosed 80 weeks, study length 95 weeks", "result": "276 mg/kg/day (inactive)"}, {"measurement": "TD50", "setting": "rat, strain Sprague-Dawley, females, by gavage, site: any site (literature study), lesion: several types, types named in the paper, dosed 80 weeks, study length 95 weeks", "result": "78.3 mg/kg/day (inactive)"}, {"measurement": "TD50", "setting": "rat, strain Sprague-Dawley, females, by gavage, site: liver, lesion: cystadenoma, dosed 80 weeks, study length 95 weeks", "result": "1200 mg/kg/day (inactive)"}, {"measurement": "carcinogen call", "setting": "rat, strain Sprague-Dawley, males, by gavage, site: any site (literature study), lesion: malignant tumor, dosed 80 weeks, study length 95 weeks", "result": "negative (inactive)"}, {"measurement": "carcinogen call", "setting": "rat, strain Sprague-Dawley, males, by gavage, site: any site (literature study), lesion: several types, types named in the paper, dosed 80 weeks, study length 95 weeks", "result": "negative (inactive)"}, {"measurement": "carcinogen call", "setting": "rat, strain Sprague-Dawley, males, by gavage, site: liver, lesion: one or several types, types not named, dosed 80 weeks, study length 95 weeks", "result": "negative (inactive)"}, {"measurement": "TD50", "setting": "rat, strain Wistar, females, in drinking water, site: liver, lesion: hepatocellular carcinoma, dosed 187 weeks, study length 187 weeks", "result": 10000, "unit": "mg/kg/day"}, {"measurement": "TD50", "setting": "rat, strain Wistar, females, in drinking water, site: liver, lesion: neoplastic nodule, dosed 187 weeks, study length 187 weeks", "result": 883, "unit": "mg/kg/day"}, {"measurement": "TD50", "setting": "rat, strain Wistar, males, in drinking water, site: kidney, lesion: adenocarcinoma, dosed 172 weeks, study length 172 weeks", "result": 5300, "unit": "mg/kg/day"}, {"measurement": "TD50", "setting": "rat, strain Wistar, males, in drinking water, site: kidney, lesion: adenoma, dosed 172 weeks, study length 172 weeks", "result": 5300, "unit": "mg/kg/day"}, {"measurement": "TD50", "setting": "rat, strain Wistar, males, in drinking water, site: liver, lesion: hepatocellular carcinoma, dosed 172 weeks, study length 172 weeks", "result": 5300, "unit": "mg/kg/day"}]}
